Source: patent US8952024B2, “Herbicidal pyrimidone derivatives” (E I du Pont de Nemours and Company, priority 2009, dated 2015)

What was measured:
Assay type in all cases: in vivo
[1] = tested on: pigweed (Amaranthus retroflexus); test: Test B pre-/postemergence plant response; settings: Postemergence
In short: (§1)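 Seeds sown in loam–sand blend were treated preemergence, and plants at 2–18 cm (1- to 4-leaf stage) in peat-based medium were treated postemergence; compounds were formulated in non-phytotoxic solvent with surfactant. After 13–15 days in greenhouse, response was visually rated against controls, 0 (no effect) to 100 (complete control).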

[2] = tested on: wild oat (Avena fatua); test: Test B pre-/postemergence plant response; settings: Postemergence
In short: as §1

[3] = tested on: canarygrass (Phalaris minor); test: Test B postemergence plant response; settings: Postemergence
In short: (§2)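 Plants at the 1- to 4-leaf stage (2 to 18 cm tall), grown in pots of peat moss/vermiculite medium with wetting agent and starter nutrients, received postemergence applications of test chemicals. After 13 to 15 days in a greenhouse, injury was rated visually against untreated controls on a 0 (no effect) to 100 (complete control) scale.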

[4] = tested on: chickweed (Stellaria media); test: Test B postemergence plant response; settings: Postemergence
In short: as §2

[5] = tested on: windgrass (Apera spica-venti); test: Test B postemergence plant response; settings: Postemergence
In short: as §2

[6] = tested on: winter barley (Hordeum vulgare); test: Test B postemergence plant response; settings: for Barley plant response rating (0 to 100 scale): postemergence, 0 is no effect, 100 is complete control; for Plant response rating, Barley: Postemergence
In short: as §2

[7] = tested on: barnyardgrass (Echinochloa crus-galli); test: Test B flooded paddy test; settings: for Plant response rating, Flood, Barnyardgrass: 250 g ai/ha, flooded paddy test, visual rating on 0 to 100 scale (0 no effect, 100 complete control) after 13 to 15 days; for Plant response rating, Barnyardgrass: Flood (flooded paddy test), 13 to 15 days; for Barnyardgrass plant response rating: Flood, 31 g ai/ha, scale 0 to 100 (0 no effect, 100 complete control)
In short: (§3)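 Greenhouse-held for 13 to 15 days, treated pots were compared visually with controls and scored 0–100 (0, no effect). Treatment had been made into paddy water kept at 3 cm above the soil, with plants at the 2-leaf stage.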

[8] = tested on: ducksalad (Heteranthera limosa); test: Test B flooded paddy test; settings: for Plant response rating, Flood, Ducksalad: 250 g ai/ha, flooded paddy test, visual rating on 0 to 100 scale (0 no effect, 100 complete control) after 13 to 15 days; for Plant response rating, Ducksalad: Flood (flooded paddy test), 13 to 15 days; for Ducksalad plant response rating: Flood, 31 g ai/ha, scale 0 to 100 (0 no effect, 100 complete control)
In short: as §3

[9] = tested on: rice (Oryza sativa); test: Test B flooded paddy test; settings: for Plant response rating, Flood, Rice: 250 g ai/ha, flooded paddy test, visual rating on 0 to 100 scale (0 no effect, 100 complete control) after 13 to 15 days; for Plant response rating, Rice: Flood (flooded paddy test), 13 to 15 days; for Rice plant response rating: Flood, 31 g ai/ha, scale 0 to 100 (0 no effect, 100 complete control)
In short: as §3

[10] = tested on: umbrella sedge (Cyperus difformis); test: Test B flooded paddy test; settings: for Plant response rating, Flood, Sedge, Umbrella: 250 g ai/ha, flooded paddy test, visual rating on 0 to 100 scale (0 no effect, 100 complete control) after 13 to 15 days; for Plant response rating, Sedge, Umbrella: Flood (flooded paddy test), 13 to 15 days; for Sedge, Umbrella plant response rating: Flood, 31 g ai/ha, scale 0 to 100 (0 no effect, 100 complete control)
In short: as §3

[11] = tested on: galium (catchweed bedstraw, Galium aparine); test: Test B pre-/postemergence plant response; settings: Postemergence
In short: as §1

[12] = 31 g ai/ha, 0 to 100 scale (0 no effect, 100 complete control)
[13] = 125 g ai/ha, scale 0 to 100 (0 no effect, 100 complete control)
[14] = 250 g ai/ha, scale 0 to 100 (0 no effect, 100 complete control), 13 to 15 days
[15] = 62 g ai/ha, scale of 0 to 100 where 0 is no effect and 100 is complete control
[16] = 125 g ai/ha, scale 0 to 100, 0 is no effect, 100 is complete control
[17] = 62 g ai/ha, scale 0 to 100 (0 no effect, 100 complete control)

Structure (SMILES)	Plant response rating, Pigweed [1, 12]	Plant response rating, Oat, Wild [2, 12]	Plant response rating, Oat, Wild [2, 14]	Plant response rating, Canarygrass [3, 12]	Plant response rating, Canarygrass [3, 13]	Plant response rating, Canarygrass [3, 14]	Plant response rating, Chickweed [4, 12]	Plant response rating, Chickweed [4, 13]	Plant response rating, Chickweed [4, 14]	Plant response rating, Windgrass [5, 12]	Plant response rating, Windgrass [5, 14]	Plant response rating, Barley [6, 12]	Plant response rating, Barley [6, 13]	Plant response rating, Barley [6, 14]	Plant response rating, Barnyardgrass [7, 16]	Barnyardgrass plant response rating [7]	Plant response rating, Ducksalad [8, 16]	Ducksalad plant response rating [8]	Plant response rating, Rice [9, 16]	Rice plant response rating [9]	also measured
Cc1ccc(-n2c(-c3cc(F)cc(F)c3)ncc(C(=O)C3=C(O)CCCC3=O)c2=O)cc1 [Compound 162]	100	35	55	40	90	90	90	100	100	40	80	30	50	85	40	20	100	98	90	0	Plant response rating, Pigweed [1, 13]: 100; Plant response rating, Pigweed [1, 14]: 100; Plant response rating, Oat, Wild [2, 13]: 45; Plant response rating, Windgrass [5, 13]: 60; Barley plant response rating (0 to 100 scale) ([6]; 62 g ai/ha, 13 to 15 days): 35; Plant response rating, Flood, Barnyardgrass [7]: 55; Plant response rating, Barnyardgrass [7, 15]: 25; Plant response rating, Flood, Ducksalad [8]: 100; Plant response rating, Ducksalad [8, 15]: 100; Plant response rating, Flood, Rice [9]: 90; Plant response rating, Rice [9, 15]: 25; Plant response rating, Flood, Sedge, Umbrella [10]: 100; Plant response rating, Sedge, Umbrella [10, 15]: 100; Plant response rating, Sedge, Umbrella [10, 16]: 100; Sedge, Umbrella plant response rating [10]: 95
CCCn1c(-c2cc(Cl)cc(Cl)c2)ncc(C(=O)C2=C(O)CCCC2=O)c1=O [Compound 173]	85	50	85	10	40	80	65	100	100	30	75	5	35	50	15	0	75	30	15	0	Plant response rating, Pigweed [1, 13]: 100; Plant response rating, Pigweed [1, 14]: 100; Plant response rating, Oat, Wild [2, 13]: 70; Plant response rating, Windgrass [5, 13]: 70; Barley plant response rating (0 to 100 scale) ([6]; 62 g ai/ha, 13 to 15 days): 20; Plant response rating, Sedge, Umbrella [10, 16]: 85; Sedge, Umbrella plant response rating [10]: 0
O=C1CCCC(O)=C1C(=O)c1cnc(-c2ccsc2)n(C2CCOCC2)c1=O [Compound 186]	85	0	45	5	40	40	95	100	100	10	65	0	5	5	30	0	90	90	45	10	Plant response rating, Galium [11, 12]: 40; Plant response rating, Galium [11, 13]: 70; Plant response rating, Galium [11, 14]: 70; Plant response rating, Pigweed [1, 13]: 100; Plant response rating, Pigweed [1, 14]: 100; Plant response rating, Oat, Wild [2, 13]: 20; Plant response rating, Windgrass [5, 13]: 50; Barley plant response rating (0 to 100 scale) ([6]; 62 g ai/ha, 13 to 15 days): 5; Plant response rating, Flood, Barnyardgrass [7]: 30; Plant response rating, Barnyardgrass [7, 15]: 20; Plant response rating, Flood, Ducksalad [8]: 100; Plant response rating, Ducksalad [8, 15]: 90; Plant response rating, Flood, Rice [9]: 65; Plant response rating, Rice [9, 15]: 20; Plant response rating, Flood, Sedge, Umbrella [10]: 90; Plant response rating, Sedge, Umbrella [10, 15]: 80; Plant response rating, Sedge, Umbrella [10, 16]: 80; Sedge, Umbrella plant response rating [10]: 70
CCCn1c(-c2ccccc2)ncc(C(=O)C2=C(O)C3CCC(C3)C2=O)c1=O (centres unmarked) [Compound 226]	75	25	50	5	50	60	75	85	95	10	85	10	30	60	95	50	30	0	60	20	Plant response rating, Pigweed [1, 14]: 98; Plant response rating, Pigweed [1, 17]: 85; Plant response rating, Oat, Wild [2, 17]: 30; Plant response rating, Canarygrass [3, 17]: 30; Plant response rating, Chickweed [4, 17]: 75; Plant response rating, Windgrass [5, 17]: 50; Plant response rating, Barley [6, 17]: 30; Plant response rating, Flood, Barnyardgrass [7]: 95; Plant response rating, Barnyardgrass [7, 15]: 60; Plant response rating, Flood, Ducksalad [8]: 40; Plant response rating, Ducksalad [8, 15]: 0; Plant response rating, Flood, Rice [9]: 65; Plant response rating, Rice [9, 15]: 40; Plant response rating, Flood, Sedge, Umbrella [10]: 60; Plant response rating, Sedge, Umbrella [10, 15]: 40; Plant response rating, Sedge, Umbrella [10, 16]: 50; Sedge, Umbrella plant response rating [10]: 30
CCn1c(-c2cccc(F)c2)ncc(C(=O)C2=C(O)C3CCC(C3)C2=O)c1=O (centres unmarked) [Compound 236]	85	0	60	0	0	10	75	100	100	30	85	0	0	0	0	0	60	0	0	0	Plant response rating, Pigweed [1, 17]: 85; Plant response rating, Oat, Wild [2, 17]: 0; Plant response rating, Canarygrass [3, 17]: 0; Plant response rating, Chickweed [4, 17]: 100; Plant response rating, Windgrass [5, 17]: 50; Plant response rating, Barley [6, 17]: 0; Plant response rating, Flood, Barnyardgrass [7]: 20; Plant response rating, Barnyardgrass [7, 15]: 0; Plant response rating, Flood, Ducksalad [8]: 70; Plant response rating, Ducksalad [8, 15]: 0; Plant response rating, Flood, Rice [9]: 0; Plant response rating, Rice [9, 15]: 0; Plant response rating, Flood, Sedge, Umbrella [10]: 40; Plant response rating, Sedge, Umbrella [10, 15]: 0; Plant response rating, Sedge, Umbrella [10, 16]: 0; Sedge, Umbrella plant response rating [10]: 0
